Assay results taken from patent US9463204B2, “Method for inducing differentiation enabling tumorigenesis of IPS cells to be suppressed” (Osaka University, priority 2011, dated 2016).
Entries after “also recorded” stand apart in the source; their conditions may differ.

System: mouse iPS cells
Assay: Tumorigenesis suppression effects of statins versus phenamil (osteoblasts from iPS cell aggregates transplanted under mouse dorsal skin)
Assay type: in vivo
Description: Statins are also known as compounds that promote osteoblast differentiation induction, and have the effect of differentiating iPS cells into osteoblasts. Osteoblasts obtained by inducing differentiation in the presence of an osteoblast differentiation induction promoter (phenamil 1 μM) that was not a statin (HMG-CoA reductase inhibitor) were used as a control.
Osteoblasts obtained by inducing differentiation for 30 days in the presence of a statin or phenamil were transplanted under mouse dorsal skin (both sides).

## NC(=Nc1ccccc1)NC(=O)c1nc(Cl)c(N)nc1N [phenamil]
1 μM compound in osteoblast differentiation-inducing medium for 30 days, 28 days after transplantation under mouse dorsal skin
  tumor formation after transplantation (FIG. 7): a tumor was formed; also recorded: no tumor formation suppression effect was observed
1 μM compound, 30 days differentiation induction, grafts extracted after 28 days
  tissue other than bone tissue (tumorigenesis/teratoma) around the grafts (H&E, FIG. 8): formation of tissue other than bone tissue (teratoma) was observed
